Results published in patent publication US10406243B2, “Methods of treatment comprising a polyrotaxane and medicinal composition” (National University Corporation Tokyo Medical and Dental …, priority 2013, dated 2019).

Experiments:
NPC1 cells [1] = assay: LC3 and p62 expressions by Western blotting (Test Example 9); type: cell-based, human
Method: The expressions of LC3 and p62 in the following cells were assayed by Western blotting as follows.
(§1) The cells were seeded on a 12-well plate (Nunc) (cell count: 1×10^5 cells/well), and incubated at 37° C. under a 5% CO2 atmosphere for one day, followed by the addition of the following samples and another 24-hour incubation.
(§2) After the culturing, the cells were washed with PBS, and then 150 μL of RIPA buffer (Wako) containing 1% protease inhibitor cocktail (Nacalai Tesque) and 1% Phosphatase inhibitor cocktail (Nacalai Tesque) was added, and the cells were lysed by shaking for 30 minutes. The cell lysate was centrifuged for 10 minutes at 15,000 rpm, and the supernatant was collected.
(§3) 10 μL of the supernatant and 2.5 μL of Laemmli buffer (Bio-Rad) were mixed, and applied to a 12% acrylamide gel. Then, electrophoresis was performed at 150∇ for 45 minutes. Then, proteins were transferred to a polyvinylidene fluoride (PVDF) membrane (Bio-Rad) using trans-blot Turbo Blotting System (Bio-Rad). Then, blocking was carried out with 5% skim milk solution (Wako) for an hour.
After the blocking treatment, PVDF membranes were treated at 4° C. for one day with an antibody against LC3 which is an indicator of autophagy (purchased from MBL), an antibody against p62/SQSTM1 which is a selective autophagy substrate (purchased from MBL), and an anti-β-actin antibody (Sigma-Aldrich), each diluted with 1% skim milk solution.
After three washes with PBS, the PVDF membranes were treated for 1 hour at room temperature with HRP-conjugated goat anti-rabbit IgG diluted in 1% skim milk solution.
After three washes with PBS, the PVDF membranes were treated with Pierce Western Blotting Substrate, and the images were taken with ImageQuant LAS 500 system (GE Healthcare Bioscience).
For comparison, the following cases were also examined in a similar manner: a case where NHDF cells were used and none of the samples were added; a case where NHDF cells were used and Bafilomycin A1 (hereinafter, referred to as “Baf A”) was added instead of the sample; a case where NPC1 cells were used and none of the samples were added; and a case where NPC1 cells were used and Baf A was added instead of the sample.
(§4) Each of the relative expression levels was determined from the intensity of Western blot band. […]

[2] = system: NPC1 cells (human dermal fibroblasts derived from a Niemann-Pick type C disease patient); assay: Accumulation of cholesterol, filipin staining observed by confocal microscope (Test Example 2); type: cell-based; conditions: equivalent to 100 μM of cyclodextrin, 24 hours
Method: Normal human dermal fibroblasts (hereinafter, referred to as “NHDF” or “NHDF cells”; obtained from Coriell Institute; number: GM05659) and human dermal fibroblasts derived from a Niemann-Pick type C disease patient (hereinafter, referred to as “NPC1” or “NPC1 cells”; obtained from Coriell Institute; number: GM03123) were used as follows to examine the cellular accumulation of cholesterol.
After the incubation, the cells were fixed with 4% paraformaldehyde, and following the addition of filipin (Polysciences) in PBS adjusted to 100 μg/mL, were allowed to stand for 45 minutes at room temperature. After washing the cells three times with PBS, the localization of cholesterol was observed by using a confocal laser scanning microscope, FluoView FV10i (Olympus). Moreover, the amount of intracellular cholesterol accumulation was determined.
In each image, the part shown in white indicates cholesterol. The amount added of each sample is equivalent to 100 μM of cyclodextrin.

[3] = system: NPC1 cells (human dermal fibroblasts derived from a Niemann-Pick type C disease patient); assay: Quantification of intracellular cholesterol accumulation, Amplex Red Cholesterol Assay Kit (Test Example 2); type: cell-based; conditions: equivalent to 100 μM of cyclodextrin, 24 hours
Method: The quantification of the amount of intracellular cholesterol accumulation was carried out as follows.
After the incubation the cells were lysed with cell lysis buffer to obtain cell lysates, and the intracellular cholesterol was determined by Amplex Red Cholesterol Assay Kit (Invitrogen) while the total cellular protein content was determined with Micro BCA Protein Assay Kit (Thermo Fisher Scientific). The total intracellular cholesterol content is shown as total cholesterol content (nmol)/total protein content (mg).
In FIG. 9, in order from the left, the results on the following are shown: “the case where NPC1 cells were used and none of the samples were added (non-treated)”, “the case where NPC1 cells were used and HP-β-CD was added as a sample (HP-β-CD added)”, “the case where NPC1 cells were used and DM-β-CD was added as a sample (DM-β-CD added)”, “the case where NPC1 cells were used and HE-SS-PRX was added as a sample (HE-SS-PRX added)”, “the case where NPC1 cells were used and HE-ace-PRX was added as a sample (HE-ace-PRX added)”, “the case where NPC1 cells were used and HE-PRX was added as a sample (HE-PRX added)”, and “the case where NPC1 cells were used and HE-SS-PRX was added as a sample (HE-SS-PRX added)”, and “the case where NHDF cells were used and none of the samples were added (non-treated)”. The amount added of each sample is equivalent to 100 μM of cyclodextrin.

NPC1 cells [4] = assay: Cholesterol removal effect, dose-response (Test Examples 5, 6, 7-1); type: cell-based, human; conditions: 24 hours, concentration as cyclodextrin
Method: Then, the cells were washed twice with phosphate-buffered solution, and 0.25% trypsin-EDTA solution (Gibco) was added to each well to peel the cells. The cells were collected into a 1.5 mL tube, and washed twice with phosphate buffered saline. Then, cell lysis solution (including 50 mM phosphate buffer solution, 500 mM sodium chloride, 25 mM cholic acid, and 0.5% Triton X-100) was added to each tube to lyse the cells.
In each cell lysate, the total cholesterol was quantified by Amplex Red Cholesterol Assay Kit (Invitrogen), and the total protein was quantified by micro BCA Protein Assay Kit (Thermo Fisher Scientific). The total cellular cholesterol content is shown as total cholesterol content (nmol)/total protein content (mg).
Similar assays to Test Example 5 were performed except that the following samples were used in order to investigate how the type of degradable linkage in polyrotaxane influences to cholesterol removal from NPC1.
Similar assays to Test Example 5 were performed except that the following samples were used in order to investigate how the type of functional group introduced into cyclodextrins in polyrotaxane influences to cholesterol removal from NPC1.

NPC1 cells [5] = assay: Observation of autophagosomes by LC3 immunostaining (Test Example 8); type: cell-based, human; conditions: 24 hours, HP-β-CD 10 mM, HEE-SS-PRX equivalent to 1 mM β-CD
Method: NPC1 cells were seeded on a 35 mm glass bottom dish (IWAKI) (cell count: 1.5×10^4 cells/dish), and incubated at 37° C. under a 5% CO2 atmosphere for one day, followed by the addition of the following samples and another 24-hour incubation.
After the culturing, the cells were fixed with 4% paraformaldehyde (Wako) for 10 minutes, treated with 50 μg/ml digitonin solution (Tokyo Chemical Industry) for 5 minutes to permeabilize the plasma membrane, and blocked with 1% BSA/PBS solution for 30 minutes.
The cells were then treated with Rabbit polyclonal anti-LC3 antibody (MBL) diluted to 1:200 with 1% BSA for one day at 4° C. After washing with PBS, the cells were stained with Alexa Fluor 488-conjugated goat anti-rabbit IgG (Abeam) (diluted to 1:1,000 with 1% BSA solution) for 30 minutes. After washing with PBS, the cells were observed by FluoView FV-10i (Olympus).
In FIG. 16E, in order from the left, the results on the following are shown: “the case where NHDF cells were used and none of the samples were added”, “the case where NPC1 cells were used and HP-β-CD was added as a sample (amount added: 10 mM)”, “the case where NPC1 cells were used and […] was added as a sample (amount added: amount equivalent to 1 mM concentration of β-CD on HEE-SS-PRX)”.

[6] = system: Fabry disease patient-derived dermal fibroblasts; assay: LC3-II expression by Western blotting (Test Example 9); type: cell-based, human; conditions: HP-β-CD 10 mM, HEE-SS-PRX 1 mM
Method: (4) Fabry disease patient-derived dermal fibroblasts (obtained from Coriell Institute; number: GM00107)
as §1, §2
as §3, with “hour. […]” for “hour.”
as §4

NPC1 cells [7] = assay: Fusion of autophagosomes and lysosomes, co-localization of mRFP-LC3 and LAMP1 (Test Example 11); type: cell-based, human; conditions: 24 hours, HP-β-CD 10 mM, HEE-SS-PRX equivalent to 1 mM cyclodextrin
[8] = system: GM1 gangliosidosis patient-derived dermal fibroblasts; assay: LC3-II expression by Western blotting (Test Example 9); type: cell-based, human; conditions: HP-β-CD 10 mM, HEE-SS-PRX 1 mM
Method: (5) GM1 gangliosidosis patient-derived dermal fibroblasts (obtained from Coriell Institute; number: GM03589)
as §1, §2
as §3, with “hour. […]” for “hour.”
as §4

[9] = system: NPC disease patient-derived NPC2 mutant dermal fibroblasts; assay: as above; type: cell-based, human; conditions: NPC2-mutated fibroblasts; HP-β-CD 10 mM, HEE-SS-PRX 1 mM
Method: (3) NPC disease patient-derived NPC2 mutant dermal fibroblasts (obtained from Coriell Institute; number: GM18455)
as §1, §2
as §3, with “hour. […]” for “hour.”
as §4

[10] = system: NPC disease patient-derived cells; conditions: cited from earlier work
[11] = system: Npc1-deficient mice (Npc1−/− mice); conditions: cited from earlier work
NPC1 cells [12] = assay: Observation of autolysosome formation, mRFP-EGFP-LC3 (Test Example 10); type: cell-based, human; conditions: 24 hours, HP-β-CD 10 mM, HEE-SS-PRX equivalent to 1 mM cyclodextrin
[13] = NHDF or NPC1 cells, Baf A added instead of the sample

Molecule	LC3 level (NPC1 cells [1]; [13])	p62 level (NPC1 cells [1]; [13])	Filipin fluorescence intensity (intracellular cholesterol) [2]	Amount of intracellular cholesterol accumulation (total cholesterol/total protein) [3]	Half maximal effective concentration (ED50) from dose-response curve for cholesterol accumulation (NPC1 cells [4])	Expression level of p62 (NPC1 cells [1]; NPC1 cells, 24 hours, 10 mM)	Expression level of LC3-II (NPC1 cells [1]; NPC1 cells, 24 hours, HP-β-CD 0.1 to 10 mM, HEE-SS-PRX 0.01 to 1 mM)	Number of LC3-positive vesicles in a cell (NPC1 cells [5])	LC3-II level [6]	Co-localization rate of mRFP-LC3 and LAMP1 (NPC1 cells [7])	LC3-II level [8]	LC3-II level [9]	Amount of cholesterol in cells [10]	Amount of cholesterol accumulated in each tissue [11]	Survival [11]	Number of autolysosomes (NPC1 cells [12])	Number of autophagosomes (NPC1 cells [12])
CO/C1=C\C(C)=C\[C@@H](C)[C@@H](O)[C@@H](C)C/C(C)=C/C=C/[C@H](OC)[C@@H]([C@@H](C)[C@@H](O)[C@H](C)[C@@]2(O)C[C@@H](O)[C@H](C)[C@@H](C(C)C)O2)OC1=O [Baf A, Bafilomycin A1]	significant increases	significant increases															
COC[C@H]1O[C@@H]2O[C@H]3[C@H](O)[C@@H](OC)[C@@H](O[C@H]4[C@H](O)[C@@H](OC)[C@@H](O[C@H]5[C@H](O)[C@@H](OC)[C@@H](O[C@H]6[C@H](O)[C@@H](OC)[C@@H](O[C@H]7[C@H](O)[C@@H](OC)[C@@H](O[C@H]8[C@H](O)[C@@H](OC)[C@@H](O[C@H]1[C@H](O)[C@H]2OC)O[C@@H]8COC)O[C@@H]7COC)O[C@@H]6COC)O[C@@H]5COC)O[C@@H]4COC)O[C@@H]3COC [DM-β-CD, 2,6-dimethyl-β-cyclodextrin]			reduced	capable of removing more cholesterol than HP-β-CD	230 µM												
Hydroxypropyl β-cyclodextrin [HP-β-CD]				subtle reduction of cholesterol	2590 µM	significantly increased	increased the expression of LC3-II in a concentration dependent manner	further increased counts of LC3-positive vesicles	increase in LC3-II	low	increase in LC3-II	increase in LC3-II	the amount of cholesterol in cells decreases	decreases the amount of cholesterol accumulated in each tissue	extends the survival	no change in the number of autolysosomes	increase in the number of autophagosomes
